The values that follow are results of earlier work, collected in article PMC4654502, “Early Gelatinase Activity Is Not a Determinant of Long-Term Recovery after Traumatic Brain Injury in the Immature Mouse” (PLoS ONE, 2015).

The subject of one data set is HI in p7 rat pups. To be noted: cited from earlier work.
The subject of a further data set is TBI in adult mice. To be noted: 25 mg/kg; cited from earlier work.
Data set [1] deals with fluid-percussion injury in adult rats. As to conditions: cited from earlier work.
The subject of data set [2] is adult models of ischemic stroke. The arrangement: method as in PMID 22587708. As to conditions: cited from earlier work.
The test system of the next data set is HI injury in rats at p21. The arrangement: method as in PMID 23171520. To be noted: i.p. 50 mg/kg at 30 min, 6 h and 12 h after HI; cited from earlier work.

In the case of `CNC(=O)[C@H](Cc1c[nH]c2ccccc12)NC(=O)[C@@H](CC(=O)NO)CC(C)C` [GM6001], in the data set on HI in p7 rat pups, the “acute cell death after HI” value was “amelioration of acute cell death” and the “ipsilateral brain tissue loss after HI” value is on record as “preservation of ipsilateral brain tissue loss”.

For the compound `O=S(=O)(CC1CS1)c1ccc(Oc2ccccc2)cc1` (stereo not drawn) [SB-3CT], the “functional and neuropathological outcomes after TBI in adult mice” value in the data set on TBI in adult mice is “effective at improving functional and neuropathological outcomes”. Further, in data set [1], the “behavioral and cognitive deficits after TBI” value was “rescued behavioral and cognitive deficits”; the “hippocampal neurons after TBI” value is recorded as “preserved hippocampal neurons”. Also, in data set [2], the “behavioral and cognitive consequences of ischemic stroke” value was “ameliorate behavioral and cognitive consequences”; the infarct volumes entry is given as “reduce infarct volumes”. In addition, in the data set with HI injury in rats at p21, the “neuroprotection after HI injury” value is listed as “failed to render significant neuroprotection” and the “pro-MMP-9 after acute treatment” value is reported as “a reduction in pro-MMP-9”.
